Experiments:
[1] = biological target: T1, human pancreatic α-amylase (HPA) (Homo sapiens, UniProt P04746); experiment: Kinetic analysis of HPA inhibition; assay type: biochemical
T1 sequence (P04746 16-511): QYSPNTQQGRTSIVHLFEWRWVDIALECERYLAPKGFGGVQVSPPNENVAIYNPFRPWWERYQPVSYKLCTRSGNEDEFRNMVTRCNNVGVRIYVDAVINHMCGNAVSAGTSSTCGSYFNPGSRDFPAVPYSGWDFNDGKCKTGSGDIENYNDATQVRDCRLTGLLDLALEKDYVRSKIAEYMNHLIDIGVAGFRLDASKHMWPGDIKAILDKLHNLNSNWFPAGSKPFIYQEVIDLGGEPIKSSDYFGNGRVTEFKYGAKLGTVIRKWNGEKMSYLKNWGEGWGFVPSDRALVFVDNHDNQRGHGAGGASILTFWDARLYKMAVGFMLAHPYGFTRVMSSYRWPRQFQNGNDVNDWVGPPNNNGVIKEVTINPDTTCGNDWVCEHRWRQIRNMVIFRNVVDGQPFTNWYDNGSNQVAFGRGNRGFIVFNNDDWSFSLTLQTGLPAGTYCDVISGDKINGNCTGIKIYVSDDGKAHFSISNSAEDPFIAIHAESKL

[2] = Aqueous solubility (observation)
human salivary α-amylase = biological target: T2, human salivary α-amylase (Homo sapiens, UniProt P0DUB6); details: Lo Piparo et al., J. Med. Chem. 2008; read-out: IC50, inhibition of human salivary α-amylase; cited from earlier work
T2 sequence (P0DUB6 16-511): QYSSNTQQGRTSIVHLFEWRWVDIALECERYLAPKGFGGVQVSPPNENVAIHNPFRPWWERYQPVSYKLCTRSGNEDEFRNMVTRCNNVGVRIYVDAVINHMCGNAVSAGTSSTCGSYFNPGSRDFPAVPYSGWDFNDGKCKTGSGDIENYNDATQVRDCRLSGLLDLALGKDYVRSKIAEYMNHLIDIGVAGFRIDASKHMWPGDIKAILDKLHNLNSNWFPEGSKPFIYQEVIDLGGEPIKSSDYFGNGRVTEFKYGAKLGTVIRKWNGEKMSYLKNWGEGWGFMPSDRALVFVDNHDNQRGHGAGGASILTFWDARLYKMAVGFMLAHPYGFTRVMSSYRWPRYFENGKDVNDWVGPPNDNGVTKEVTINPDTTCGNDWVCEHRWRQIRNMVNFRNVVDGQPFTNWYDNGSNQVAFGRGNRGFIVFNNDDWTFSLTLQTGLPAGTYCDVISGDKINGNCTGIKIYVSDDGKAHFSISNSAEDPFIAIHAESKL

[3] = biological target: T3, porcine pancreatic α-amylase (Sus scrofa, UniProt P00690); details: Taderal et al. 2006; read-out: IC50, inhibition of porcine pancreatic α-amylase; cited from earlier work
T3 sequence (P00690 16-511): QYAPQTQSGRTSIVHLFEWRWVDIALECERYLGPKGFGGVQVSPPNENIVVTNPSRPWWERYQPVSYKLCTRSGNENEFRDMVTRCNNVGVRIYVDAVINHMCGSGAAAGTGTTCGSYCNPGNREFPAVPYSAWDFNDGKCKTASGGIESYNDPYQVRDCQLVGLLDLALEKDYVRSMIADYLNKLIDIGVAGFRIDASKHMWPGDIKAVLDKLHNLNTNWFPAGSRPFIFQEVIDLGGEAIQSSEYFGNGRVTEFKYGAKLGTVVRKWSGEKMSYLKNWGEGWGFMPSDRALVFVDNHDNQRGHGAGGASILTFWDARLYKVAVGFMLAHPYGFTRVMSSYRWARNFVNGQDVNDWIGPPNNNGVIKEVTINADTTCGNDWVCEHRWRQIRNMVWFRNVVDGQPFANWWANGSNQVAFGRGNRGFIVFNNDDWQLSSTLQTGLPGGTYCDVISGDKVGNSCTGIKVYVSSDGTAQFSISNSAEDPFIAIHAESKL

[4] = Stability in simulated intestinal fluid (SIF) by UPLC; assay type: in vitro ADME; details: positive control, 0.5 mg/ml, 37° C., 3 hours
Protocol: (§1) The stability of montbretin A in both simulated intestinal fluid (SIF) and simulated gastric fluid (SGF) were analyzed via ultra performance liquid chromatography (UPLC). The instrument consisted of a Waters® Acquity™ UPLC system equipped with a PDA and a TQ detector in tandem. The 2 μL sample injection volume was passed through a Waters® Acquity™ BEH C18 column (1.7 μm, 2.1×100 mm), with mobile phases A and B consisting of water with 0.1% formic acid and acetonitrile with 0.1% formic acid, respectively. The mobile phases were delivered at a programmed linear gradient at a column temperature of 35° C. Linearity was evaluated using a set of montbretin A calibration standards with concentrations ranging from 10 to 100 μg/mL in water. […]
(§2) To examine the gastrointestinal fluid activity, 0.5 mg/ml solutions of oleamide (positive control) in SGF or SIF were prepared by diluting a 100 μL aliquot of oleamide (50 mg/mL in 2-propanol) to 10 mL with either SGF or SIF and incubated in a 37° C. water bath for 1 or 3 hours, respectively. At time points of 1 or 3 hours, the sample was removed from the water bath and a 100 μL aliquot of the resulting solution was diluted to 1 mL with de-ionized water in a glass UPLC glass sample vial and analyzed by UPLC for oleamide content. […]

[5] = Stability in simulated gastric fluid (SGF) by UPLC; assay type: in vitro ADME; details: positive control, 0.5 mg/ml, 37° C., 1 hour
Protocol: as §1, §2

[6] = test system: control and STZ-diabetic rats; experiment: Acute starch tolerance test; assay type: in vivo, rat; details: STZ-diabetic rats, starch tolerance test; extracts 5 mg/kg
Protocol: Twenty-four animals were obtained at 200-250 g of body weight and randomly divided into control and diabetic groups. Diabetes was induced by a single intravenous tail vein injection of streptozotocin 60 mg/kg in 0.9% normal saline. Control rats received normal saline injections only. Animals were subsequently divided into acarbose untreated and treated. […] Starch was obtained from Fisher Scientific and a 17.5% suspension was made in distilled water. The dose of starch given was […].
The animals were fasted overnight. A basal blood sample was collected (50 μl volume) and then at 30, 60, 90 and 120 minutes post drug administration. Starch and starch+acarbose was administered by oral gavage. Blood was centrifuged at 10,000 g×25 minutes and plasma collected for determination of glucose levels using a Beckman Glucose Analyzer II™. There was no difference in body weight among the groups. There was a significant increase in plasma glucose 30 and 60 minutes following starch administration in the diabetic untreated group only.
The twenty-four animals from Example 6 were used following a wash out period of one week. Animals were divided into montbretin A untreated and treated. The four treatment groups were: control, n=6, control+montbretin A, n=6, diabetic, n=6 and diabetic+montbretin A, n=6. The procedures used in Example 6 were employed. Montbretin A was dissolved in distilled water at a concentration of 10 mg/ml and given at a volume of 1 ml/kg. The dose of montbretin A given was 10 mg/kg. There was no difference in body weight among the groups. There was a significant increase in plasma glucose levels in the diabetic untreated group at 30 and 60 minutes following starch administration.
A study was done to determine the effect of various amounts of montbretin A and montbretin extracts on plasma glucose levels in response to a starch challenge in STZ-diabetic rats. Diabetic animals used in the previous Examples were used following a wash out period of one week. The six experimental groups were: diabetic (D, n=3) diabetic+montbretin A (5 mg/kg), (DT5, n=3), diabetic+montbretin A (1 mg/kg), (DT1, n=3), diabetic+montbretin A (0.5 mg/kg), (DT0.5, n=3), diabetic+Crocosmia corm methanol extract (5 mg/kg), (DM, n=3) and diabetic+Crocosmia corm ethanol extract (5 mg/kg), (DE, n=2).
Montbretin A was dissolved in distilled water at a concentration of 5, 1 or 0.5 mg/ml and given at a volume of 1 ml/kg. The methanol extract contained montbretin A at a concentration of 3.2 mg/ml and ethanol extract at a concentration of 1.6 mg/ml. These extracts were dried and resuspended in distilled water. There was no difference in body weight among the groups. […] Diarrhea occurred in 2 out 3 animals given the methanol extract and in 1 out of 2 animals given the ethanol extract. […]

[7] = range finder method, Dixon plot, fixed substrate concentration

Work on montbretin C yielded a Ki [1, 7] of 6.1 ± 0.1 µM.

For `CCOC(=O)/C=C/c1ccc(O)c(O)c1` [ethyl caffeiate, reference compound], the aqueous solubility [2] was “limited aqueous solubility”, the “mode of inhibition of HPA” value ([1]; double reciprocal plot) was “non-competitive” and the Ki ([1]; varied substrate and inhibitor concentrations, GraFit) was 1300 ± 100 µM.

For `O=c1c(O)c(-c2cc(O)c(O)c(O)c2)oc2cc(O)cc(O)c12` [myricetin], the aqueous solubility [2] is listed as “limited aqueous solubility”, the IC50 (human salivary α-amylase) is listed as greater than 9 µM and the IC50 [3] is listed as 380 µM.

For `CCCCCCCC/C=C\CCCCCCCC(N)=O` [Oleamide, oleamide, reference compound], the “change of concentration after incubation in SIF” value [4] was “significant decrease in concentration” and the “change of concentration after incubation in SGF” value [5] was “significant decrease in concentration”.

In the case of `CC1O[C@@H](O[C@@H]2CO[C@@H](Oc3c(O)cc(-c4oc5cc(O)cc(O)c5c(=O)c4O[C@@H]4OC(C)[C@H](O)[C@H](O)C4O[C@@H]4OC(COC(=O)/C=C/c5ccc(O)cc5)[C@@H](O)[C@@H](O)C4O[C@@H]4OC(CO)[C@@H](O)[C@@H](O)C4O)cc3O)C(O)[C@@H]2O)C(O)[C@@H](O)[C@H]1O` (some centres unmarked) [Montbretin B, montbretin B], the Ki [1, 7] is reported as 3.6 ± 0.1 µM.

For montbretin A, the occurrence of diarrhea [6] was “No diarrhea”.

Source: patent publication US8431541B2, “Alpha-amylase inhibitors: the montbretins and uses thereof” (The University of British Columbia, priority 2007, dated 2013)
